Data as given in patent US20250042903A1, “TRIAZINE INHIBITORS OF CYCLIN-DEPENDENT KINASES” (H. LEE MOFFITT CANCER CENTER AND RESEARCH INSTITUTE, INC., priority 2021, published 2025).

Tests used:
[1] = biological target: cyclin-dependent kinase 12 (Homo sapiens (Human), UniProt Q9NYV4); assay: Inhibition of cyclin-dependent kinase 12; type: biochemical; conditions: read-out: CDK12 inhibition, IC50
From the text: (§1) The inhibitory and antiproliferative activities of selected compounds disclosed herein against cyclin-dependent kinase 12 were investigated.

MDA-MB-231 = assay: Antiproliferative activity in MDA-MB-231; type: cell-based; conditions: Homo sapiens
From the text: as §1

Chain of cyclin-dependent kinase 12 (Q9NYV4 whole entry): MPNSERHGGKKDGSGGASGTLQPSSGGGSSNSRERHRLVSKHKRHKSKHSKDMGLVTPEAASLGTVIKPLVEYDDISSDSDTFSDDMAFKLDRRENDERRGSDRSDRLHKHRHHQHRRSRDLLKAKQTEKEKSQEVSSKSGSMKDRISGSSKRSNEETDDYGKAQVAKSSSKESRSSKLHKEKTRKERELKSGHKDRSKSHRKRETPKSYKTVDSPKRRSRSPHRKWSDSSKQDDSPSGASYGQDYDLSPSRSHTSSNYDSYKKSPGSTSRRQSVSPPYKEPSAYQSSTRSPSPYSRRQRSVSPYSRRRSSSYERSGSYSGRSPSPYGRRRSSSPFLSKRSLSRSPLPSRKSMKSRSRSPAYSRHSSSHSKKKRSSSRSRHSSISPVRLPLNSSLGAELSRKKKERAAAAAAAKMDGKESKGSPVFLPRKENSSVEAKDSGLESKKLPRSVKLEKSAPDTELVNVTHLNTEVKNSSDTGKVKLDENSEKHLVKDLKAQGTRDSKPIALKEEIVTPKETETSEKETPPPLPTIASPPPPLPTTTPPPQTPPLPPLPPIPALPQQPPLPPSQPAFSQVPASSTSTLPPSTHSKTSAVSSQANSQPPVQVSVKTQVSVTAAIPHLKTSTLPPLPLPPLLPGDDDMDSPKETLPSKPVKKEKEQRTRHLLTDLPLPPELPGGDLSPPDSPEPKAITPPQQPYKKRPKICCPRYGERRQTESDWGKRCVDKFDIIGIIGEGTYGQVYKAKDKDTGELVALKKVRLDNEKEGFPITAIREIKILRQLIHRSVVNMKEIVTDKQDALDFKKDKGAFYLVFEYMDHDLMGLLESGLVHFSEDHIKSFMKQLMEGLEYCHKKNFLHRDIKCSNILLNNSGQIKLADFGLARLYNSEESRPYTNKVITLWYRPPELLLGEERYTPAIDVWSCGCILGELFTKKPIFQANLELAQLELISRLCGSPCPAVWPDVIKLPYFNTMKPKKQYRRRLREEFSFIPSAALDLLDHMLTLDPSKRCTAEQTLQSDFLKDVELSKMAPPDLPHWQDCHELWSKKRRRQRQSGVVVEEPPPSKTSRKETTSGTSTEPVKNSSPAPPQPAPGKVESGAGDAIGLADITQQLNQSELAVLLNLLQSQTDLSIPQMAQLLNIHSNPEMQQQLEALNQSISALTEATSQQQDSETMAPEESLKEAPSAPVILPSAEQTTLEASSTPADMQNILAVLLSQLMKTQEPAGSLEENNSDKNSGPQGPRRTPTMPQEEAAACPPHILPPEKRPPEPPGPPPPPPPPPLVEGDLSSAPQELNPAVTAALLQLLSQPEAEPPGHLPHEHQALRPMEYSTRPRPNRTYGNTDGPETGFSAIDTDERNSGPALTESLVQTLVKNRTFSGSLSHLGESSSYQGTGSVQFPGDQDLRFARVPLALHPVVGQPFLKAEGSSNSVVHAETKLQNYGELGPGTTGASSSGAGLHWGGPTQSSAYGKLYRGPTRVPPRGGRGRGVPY
Chain of cyclin-dependent kinase 12 (O75909 whole entry partner): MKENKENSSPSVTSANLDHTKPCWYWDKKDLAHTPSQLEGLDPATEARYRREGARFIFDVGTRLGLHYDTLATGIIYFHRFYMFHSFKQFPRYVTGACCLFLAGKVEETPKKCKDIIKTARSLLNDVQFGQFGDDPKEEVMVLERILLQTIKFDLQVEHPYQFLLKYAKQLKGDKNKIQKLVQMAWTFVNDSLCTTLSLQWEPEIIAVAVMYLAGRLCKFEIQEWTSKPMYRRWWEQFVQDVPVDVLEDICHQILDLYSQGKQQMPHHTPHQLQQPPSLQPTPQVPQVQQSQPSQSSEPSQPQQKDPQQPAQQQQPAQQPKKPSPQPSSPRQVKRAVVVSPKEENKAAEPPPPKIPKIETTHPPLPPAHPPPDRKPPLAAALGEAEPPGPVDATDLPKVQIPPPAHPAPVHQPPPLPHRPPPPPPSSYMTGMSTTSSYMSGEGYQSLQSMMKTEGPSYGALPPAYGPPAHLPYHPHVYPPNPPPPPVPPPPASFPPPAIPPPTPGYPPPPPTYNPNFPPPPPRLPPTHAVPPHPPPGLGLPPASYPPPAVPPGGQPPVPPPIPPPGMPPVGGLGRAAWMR

SMILES | IC50 [1] [µM] | GI50 (MDA-MB-231) [µM]
Cn1cc(-c2cnn3c(NCc4nc5cccc(Cl)c5[nH]4)nc(N4CCOCC4)nc23)cn1 [Compound 12, N-((7-chloro-1H-benzo[d]imidazol-2-yl)methyl)-8-(1-methyl-1H-pyrazol-4-yl)-2-morpholinopyrazolo[1,5-a][1,3,5]triazin-4-amine] | 0.289 | 1.11
Clc1cc2nc(CNc3nc(N4CCOCC4)nc4c(-c5ccsc5)cnn34)[nH]c2cc1Cl [Compound 5, N-((5,6-dichloro-1H-benzo[d]imidazol-2-yl)methyl)-2-morpholino-8-(thiophen-3-yl)pyrazolo[1,5-a][1,3,5]triazin-4-amine] | 2.42 | 0.764
FC(F)n1cc(-c2cnn3c(NCc4nc5cc(Cl)c(Cl)cc5[nH]4)nc(N4CCC(F)(F)CC4)nc23)cn1 [Compound 3, N-((5,6-dichloro-1H-benzo[d]imidazol-2-yl)methyl)-8-(1-(difluoromethyl)-1H-pyrazol-4-yl)-2-(4,4-difluoropiperidin-1-yl)pyrazolo[1,5-a][1,3,5]triazin-4-amine] | > 10 | 0.71
FC(F)n1cc(-c2cnn3c(NCc4nc5cccc(Cl)c5[nH]4)nc(N4CCC(F)(F)CC4)nc23)cn1 [Compound 7, N-((7-chloro-1H-benzo[d]imidazol-2-yl)methyl)-8-(1-(difluoromethyl)-1H-pyrazol-4-yl)-2-(4,4-difluoropiperidin-1-yl)pyrazolo[1,5-a][1,3,5]triazin-4-amine] | 0.552 | 0.98
Fc1cccc2nc(CNc3nc(N4CCOCC4)nc4c(-c5cnn(C(F)F)c5)cnn34)[nH]c12 [Compound 8, 8-(1-(difluoromethyl)-1H-pyrazol-4-yl)-N-((7-fluoro-1H-benzo[d]imidazol-2-yl)methyl)-2-morpholinopyrazolo[1,5-a][1,3,5]triazin-4-amine] | 0.044 | 0.044
FC(F)n1cc(-c2cnn3c(NCc4nc5cc(Cl)c(Cl)cc5[nH]4)nc(N4CCOCC4)nc23)cn1 [Compound 2, N-((5,6-dichloro-1H-benzo[d]imidazol-2-yl)methyl)-8-(1-(difluoromethyl)-1H-pyrazol-4-yl)-2-morpholinopyrazolo[1,5-a][1,3,5]triazin-4-amine] | 0.262 | 0.15
Cn1cc(-c2cnn3c(NCc4nc5cc(F)c(F)cc5[nH]4)nc(N4CCOCC4)nc23)cn1 [Compound 14, N-((5,6-difluoro-1H-benzo[d]imidazol-2-yl)methyl)-8-(1-methyl-1H-pyrazol-4-yl)-2-morpholinopyrazolo[1,5-a][1,3,5]triazin-4-amine] | 1.35 | 1.24
Fc1cc2nc(CNc3nc(N4CCOCC4)nc4c(-c5ccsc5)cnn34)[nH]c2cc1F [Compound 11, N-((5,6-difluoro-1H-benzo[d]imidazol-2-yl)methyl)-2-morpholino-8-(thiophen-3-yl)pyrazolo[1,5-a][1,3,5]triazin-4-amine] | 0.196 | 0.061
Cn1cc(-c2cnn3c(NCc4nc5cccc(Cl)c5[nH]4)nc(N4CCC(F)(F)CC4)nc23)cn1 [Compound 13, N-((7-chloro-1H-benzo[d]imidazol-2-yl)methyl)-2-(4,4-difluoropiperidin-1-yl)-8-(1-methyl-1H-pyrazol-4-yl)pyrazolo[1,5-a][1,3,5]triazin-4-amine] | 1.28 | 3.77
Cn1cc(-c2cnn3c(NCc4nc5cc(Cl)c(Cl)cc5[nH]4)nc(N4CCOCC4)nc23)cn1 [Compound 1, N-((5,6-dichloro-1H-benzo[d]imidazol-2-yl)methyl)-8-(1-methyl-1H-pyrazol-4-yl)-2-morpholinopyrazolo[1,5-a][1,3,5]triazin-4-amine] | 0.554 | 0.419
FC(F)n1cc(-c2cnn3c(NCc4nc5cccc(Cl)c5[nH]4)nc(N4CCOCC4)nc23)cn1 [Compound 6, N-((7-chloro-1H-benzo[d]imidazol-2-yl)methyl)-8-(1-(difluoromethyl)-1H-pyrazol-4-yl)-2-morpholinopyrazolo[1,5-a][1,3,5]triazin-4-amine] | 0.065 | 0.062
Clc1cccc2nc(CNc3nc(N4CCOCC4)nc4c(-c5ccsc5)cnn34)[nH]c12 [Compound 9, N-((7-chloro-1H-benzo[d]imidazol-2-yl)methyl)-2-morpholino-8-(thiophen-3-yl)pyrazolo[1,5-a][1,3,5]triazin-4-amine] | 0.377 | 0.227
OC[C@@H]1COCCN1c1nc(NCc2nc3cc(Cl)c(Cl)cc3[nH]2)n2ncc(-c3cnn(C(F)F)c3)c2n1 [Compound 4, (R)-(4-(4-(((5,6-dichloro-1H-benzo[d]imidazol-2-yl)methyl)amino)-8-(1-(difluoromethyl)-1H-pyrazol-4-yl)pyrazolo[1,5-a][1,3,5]triazin-2-yl)morpholin-3-yl)methanol] | 4.05 | 0.384
CN1CCN(c2nc(NCc3nc4cccc(Cl)c4[nH]3)n3ncc(-c4ccsc4)c3n2)CC1 [Compound 10, N-((7-chloro-1H-benzo[d]imidazol-2-yl)methyl)-2-(4-methylpiperazin-1-yl)-8-(thiophen-3-yl)pyrazolo[1,5-a][1,3,5]triazin-4-amine] | 1.56 | 0.835
